PubChem BioAssay (NCI)
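In this assay, cells in 96-well plates receive the compound at five concentrations for 48 hours. Endpoints are linearly interpolated between the surrounding concentrations. Definition used: TGI = concentration required for complete inhibition of growth.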

How the values were obtained:
Assay in all cases: NCI tumour cell line growth inhibition, 48 h
786-0 renal = test system: 786-0 renal
A498 renal = test system: A498 renal
A549 NSCLC = test system: A549 NSCLC
ACHN renal = test system: ACHN renal
CCRF-CEM leukemia = test system: CCRF-CEM leukemia
COLO 205 colon = test system: COLO 205 colon
DLD-1 colon = test system: DLD-1 colon
HCC-2998 colon = test system: HCC-2998 colon
HCT-116 colon = test system: HCT-116 colon
HCT-15 colon = test system: HCT-15 colon
HL-60(TB) leukemia = test system: HL-60(TB) leukemia
HOP-18 NSCLC = test system: HOP-18 NSCLC
HOP-62 NSCLC = test system: HOP-62 NSCLC
HOP-92 NSCLC = test system: HOP-92 NSCLC
HT29 colon = test system: HT29 colon
IGROV1 ovarian = test system: IGROV1 ovarian
K-562 leukemia = test system: K-562 leukemia
KM12 colon = test system: KM12 colon
KM20L2 colon = test system: KM20L2 colon
LOX IMVI melanoma = test system: LOX IMVI melanoma
LXFL 529 NSCLC = test system: LXFL 529 NSCLC
M14 melanoma = test system: M14 melanoma
MALME-3M melanoma = test system: MALME-3M melanoma
MOLT-4 leukemia = test system: MOLT-4 leukemia
NCI-H23 lung = test system: NCI-H23 lung
NCI-H460 lung = test system: NCI-H460 lung
OVCAR-5 ovarian = test system: OVCAR-5 ovarian
OVCAR-8 ovarian = test system: OVCAR-8 ovarian
RXF-631 renal = test system: RXF-631 renal
SF-268 CNS = test system: SF-268 CNS
SF-295 CNS = test system: SF-295 CNS
SF-539 CNS = test system: SF-539 CNS
SK-MEL-2 melanoma = test system: SK-MEL-2 melanoma
SK-MEL-28 melanoma = test system: SK-MEL-28 melanoma
SK-OV-3 ovarian = test system: SK-OV-3 ovarian
SN12C renal = test system: SN12C renal
SNB-19 CNS = test system: SNB-19 CNS
SNB-75 CNS = test system: SNB-75 CNS
SNB-78 CNS = test system: SNB-78 CNS
SR leukemia = test system: SR leukemia
SW-620 colon = test system: SW-620 colon
TK-10 renal = test system: TK-10 renal
U251 CNS = test system: U251 CNS
UACC-257 melanoma = test system: UACC-257 melanoma
UACC-62 melanoma = test system: UACC-62 melanoma
UO-31 renal = test system: UO-31 renal
BT-549 breast = test system: BT-549 breast
CAKI-1 renal = test system: CAKI-1 renal
DMS 114 small cell lung = test system: DMS 114 small cell lung
DMS 273 small cell lung = test system: DMS 273 small cell lung
DU-145 prostate = test system: DU-145 prostate
EKVX NSCLC = test system: EKVX NSCLC
M19-MEL melanoma = test system: M19-MEL melanoma
MCF7 breast = test system: MCF7 breast
MDA-MB-231 breast = test system: MDA-MB-231 breast
MDA-MB-435 = test system: MDA-MB-435
NCI-H226 lung = test system: NCI-H226 lung
NCI-H522 lung = test system: NCI-H522 lung
OVCAR-3 ovarian = test system: OVCAR-3 ovarian
OVCAR-4 ovarian = test system: OVCAR-4 ovarian
PC-3 prostate = test system: PC-3 prostate
RPMI-8226 leukemia = test system: RPMI-8226 leukemia
RXF 393 renal = test system: RXF 393 renal
SK-MEL-5 melanoma = test system: SK-MEL-5 melanoma
T-47D breast = test system: T-47D breast
XF 498 CNS = test system: XF 498 CNS

## C1CCCCc2nc3c(nc2CCC1)c1nc2c(nc1c1nc4c(nc31)CCCCCCCC4)CCCCCCCC2
786-0 renal
  TGI: > 100 µM
A498 renal
  TGI: > 100 µM
A549 NSCLC
  TGI: > 100 µM
ACHN renal
  TGI: > 100 µM
CCRF-CEM leukemia
  TGI: > 100 µM
COLO 205 colon
  TGI: > 100 µM
DLD-1 colon
  TGI: > 100 µM
HCC-2998 colon
  TGI: > 100 µM
HCT-116 colon
  TGI: > 100 µM
HCT-15 colon
  TGI: > 100 µM
HL-60(TB) leukemia
  TGI: > 100 µM
HOP-18 NSCLC
  TGI: > 100 µM
HOP-62 NSCLC
  TGI: > 100 µM
HOP-92 NSCLC
  TGI: > 100 µM
HT29 colon
  TGI: > 100 µM
IGROV1 ovarian
  TGI: > 100 µM
K-562 leukemia
  TGI: > 100 µM
KM12 colon
  TGI: > 100 µM
KM20L2 colon
  TGI: > 100 µM
LOX IMVI melanoma
  TGI: > 100 µM
LXFL 529 NSCLC
  TGI: > 100 µM
M14 melanoma
  TGI: > 100 µM
MALME-3M melanoma
  TGI: > 100 µM
MOLT-4 leukemia
  TGI: > 100 µM
NCI-H23 lung
  TGI: > 100 µM
NCI-H460 lung
  TGI: > 100 µM
OVCAR-5 ovarian
  TGI: > 100 µM
OVCAR-8 ovarian
  TGI: > 100 µM
RXF-631 renal
  TGI: > 100 µM
SF-268 CNS
  TGI: > 100 µM
SF-295 CNS
  TGI: > 100 µM
SF-539 CNS
  TGI: > 100 µM
SK-MEL-2 melanoma
  TGI: > 100 µM
SK-MEL-28 melanoma
  TGI: > 100 µM
SK-OV-3 ovarian
  TGI: > 100 µM
SN12C renal
  TGI: > 100 µM
SNB-19 CNS
  TGI: > 100 µM
SNB-75 CNS
  TGI: > 100 µM
SNB-78 CNS
  TGI: > 100 µM
SR leukemia
  TGI: > 100 µM
SW-620 colon
  TGI: > 100 µM
TK-10 renal
  TGI: > 100 µM
U251 CNS
  TGI: > 100 µM
UACC-257 melanoma
  TGI: > 100 µM
UACC-62 melanoma
  TGI: > 100 µM
UO-31 renal
  TGI: > 100 µM

## CN(C)CC1CCC(CN(C)C)C(=O)C1=O (stereo not given)
786-0 renal
  TGI: 29.7 µM
A498 renal
  TGI: 31.8 µM
A549 NSCLC
  TGI: 25.1 µM
ACHN renal
  TGI: 11.9 µM
BT-549 breast
  TGI: 20.9 µM
CAKI-1 renal
  TGI: 3.82 µM
CCRF-CEM leukemia
  TGI: 4.51 µM
COLO 205 colon
  TGI: 3.5 µM
DLD-1 colon
  TGI: 7.25 µM
DMS 114 small cell lung
  TGI: 12.9 µM
DMS 273 small cell lung
  TGI: 31.2 µM
DU-145 prostate
  TGI: 30.1 µM
EKVX NSCLC
  TGI: 47.2 µM
HCC-2998 colon
  TGI: 35.4 µM
HCT-116 colon
  TGI: 7.55 µM
HCT-15 colon
  TGI: 7.78 µM
HL-60(TB) leukemia
  TGI: 7.17 µM
HOP-18 NSCLC
  TGI: 3.07 µM
HOP-62 NSCLC
  TGI: 35.3 µM
HOP-92 NSCLC
  TGI: 3.81 µM
HT29 colon
  TGI: 16.5 µM
IGROV1 ovarian
  TGI: 33.2 µM
K-562 leukemia
  TGI: 6.15 µM
KM12 colon
  TGI: 28.1 µM
KM20L2 colon
  TGI: 30.8 µM
LOX IMVI melanoma
  TGI: 22.2 µM
LXFL 529 NSCLC
  TGI: 3.09 µM
M14 melanoma
  TGI: 12.5 µM
M19-MEL melanoma
  TGI: 33.9 µM
MALME-3M melanoma
  TGI: 3.6 µM
MCF7 breast
  TGI: 8.6 µM
MDA-MB-231 breast
  TGI: 19.5 µM
MDA-MB-435
  TGI: 31.7 µM
MOLT-4 leukemia
  TGI: 4.96 µM
NCI-H226 lung
  TGI: 10.8 µM
NCI-H23 lung
  TGI: 22.1 µM
NCI-H460 lung
  TGI: 36.4 µM
NCI-H522 lung
  TGI: 1.38 µM
OVCAR-3 ovarian
  TGI: 5.32 µM
OVCAR-4 ovarian
  TGI: 18.3 µM
OVCAR-5 ovarian
  TGI: 30.9 µM
OVCAR-8 ovarian
  TGI: 9.08 µM
PC-3 prostate
  TGI: 31.1 µM
RPMI-8226 leukemia
  TGI: 18.1 µM
RXF 393 renal
  TGI: 3.47 µM
SF-268 CNS
  TGI: 10.9 µM
SF-295 CNS
  TGI: 32.4 µM
SF-539 CNS
  TGI: 12.6 µM
SK-MEL-2 melanoma
  TGI: 34.6 µM
SK-MEL-28 melanoma
  TGI: 20.6 µM
SK-MEL-5 melanoma
  TGI: 30 µM
SK-OV-3 ovarian
  TGI: 38.7 µM
SN12C renal
  TGI: 32.7 µM
SNB-19 CNS
  TGI: 29.9 µM
SNB-75 CNS
  TGI: 30.6 µM
SR leukemia
  TGI: 5.08 µM
SW-620 colon
  TGI: 3.33 µM
T-47D breast
  TGI: 5.36 µM
TK-10 renal
  TGI: 9.96 µM
U251 CNS
  TGI: 26.7 µM
UACC-257 melanoma
  TGI: 6.44 µM
UACC-62 melanoma
  TGI: 31.3 µM
UO-31 renal
  TGI: 11 µM
XF 498 CNS
  TGI: 4.95 µM
